Data published in PMC12257413, “Discovery of a Novel sp^3‑Rich M1 Positive Allosteric Modulators (PAMs) Chemotype via Scaffold Hopping” (ACS Medicinal Chemistry Letters, 2025).
Substitutions are numbered along the chain they refer to.

Columns and labels:
[1] = molecular target: T1, rat muscarinic receptor subtype 1 (M1) (Rattus norvegicus, UniProt P08482); test: Calcium mobilization assay in rM1-CHO cells, PAM activity with EC20 acetylcholine; assay type: cell-based; conditions: for EC50: read-out: rM1 pEC50 ± SEM (converted)
T1 construct: expressed in transfected cells
T1 sequence (P08482 1-460): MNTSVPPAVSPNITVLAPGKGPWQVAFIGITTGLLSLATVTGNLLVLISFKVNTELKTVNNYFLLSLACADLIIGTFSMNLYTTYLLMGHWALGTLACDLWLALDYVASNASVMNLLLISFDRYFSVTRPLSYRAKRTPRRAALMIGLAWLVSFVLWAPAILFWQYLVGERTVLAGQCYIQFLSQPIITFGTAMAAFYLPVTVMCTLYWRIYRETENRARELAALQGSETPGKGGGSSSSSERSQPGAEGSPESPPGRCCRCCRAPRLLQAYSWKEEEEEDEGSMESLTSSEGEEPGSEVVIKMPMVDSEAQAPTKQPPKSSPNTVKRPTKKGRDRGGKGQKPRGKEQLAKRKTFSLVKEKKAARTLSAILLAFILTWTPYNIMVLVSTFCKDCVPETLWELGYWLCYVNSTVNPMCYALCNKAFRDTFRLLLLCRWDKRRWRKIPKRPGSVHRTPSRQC
Protocol: (§1) page 2: Procedures for Biological Experiments Calcium mobilization assays: To measure the functional activity of positive allosteric modulator (PAM) compounds in a cellular assay, human or rat muscarinic receptor subtype 1 (M1) was stably expressed in the Chinese hamster ovary (CHO) cells to evoke an increase in intracellular calcium to an EC20 concentration of acetylcholine (ACh) agonist. The stable M1-CHO cells were cultured in F12 medium containing 10% fetal bovine serum, 20 mM HEPES, 100 units/mL antibiotics/antimycotic, 0.5 mg/ml G418. All reagents used were from Life Technologies (Carlsbad, CA) unless otherwise noted. Briefly, the day before the assay, stable M1-CHO cells (15,000 cells/20 μL/well) were plated in black-walled, clear-bottomed, 384 well plates (Greiner Bio-One, Monroe, NC) in the culture medium without G418, and then incubated overnight at 37 °C in the presence of 5% CO2. The next day, calcium assay buffer (Hank’s balanced salt solution (HBSS), 20 mM HEPES, 2.5 mM Probenecid, 4.16 mM sodium bicarbonate (Sigma-Aldrich, St. Louis, MO) was prepared to dilute […] calcium indicator dye. […] curves in DMSO using the Bravo Liquid Handler (Agilent, Santa Clara, CA), transferred to a 384 well daughter plates using an Echo acoustic liquid handler (Beckman Coulter, Indianapolis, Indiana), and diluted in assay Buffer to a 2X final concentration. The agonist plates were prepared using acetylcholine (ACh, Sigma-Aldrich, St. Louis, MO) concentrations for the EC20 and ECMAX responses by diluting in assay buffer to a 5X final concentration. The 2X dye solution (2.3 µM) was prepared by mixing a 2.3 mM Fluo-4-AM stock in DMSO with 10% (w/v) pluronic acid F- 127 in a 1:1 ratio in assay buffer. Using a microplate washer (BioTek, Winooski, VT), cells were washed with assay buffer for 3 times to remove medium. After the final wash, 20 μL of assay buffer remained in the cell plates. Immediately, 20 μL of the 2X dye solution (final 1.15 µM) was added to each well of the cell plate using a Multidrop Combi dispenser (Thermo Fisher, Waltham, MA). After cells were incubated with the dye solutions for 45 min at 37 °C in the presence of 5% CO2, the dye solutions were removed and replaced with assay buffer using a microplate washer, leaving 20 μL of assay buffer in the cell plate. The compound, agonist, and cell plates were placed inside the Functional Drug Screening System uCell (FDSS uCell, Hamamatsu, Japan) to measure the calcium flux. The triple add protocol was used to measure Ca kinetics; Compound, ACh for EC20, and ACh for ECMAX adds in an order. Briefly, after establishment of a fluorescence baseline S2 page 3: for 2 seconds (excitation, 480 nm; emission, 530 nm), first add occurred by adding 20 µL of test compound to the cells, and the response was measured for 140 seconds. This is followed by second add; 10 µL (5X) of an EC20 concentration of ACh agonist was added to the cells, and the response of the cells was measured for 125 seconds. Immediately, the third add occurred by adding 12 ul assay buffer or 5X of an EC max concentration of ACh and the response of the cells was measured for 90 seconds. Assay buffer was added to the wells that incubated with compounds followed by EC20 concentration of ACh. Agonists containing ECmax concentration of ACh were added to the wells that incubated with DMSO and assay buffer from the 1st and 2nd adds to measure maximum Ca responses (ECmax). Calcium fluorescence was recorded as fold over basal fluorescence and raw data were normalized to the maximal response to ACh agonist. […]

[2] = molecular target: T2, human muscarinic receptor subtype 1 (M1) (Homo sapiens, UniProt P11229); test: Calcium mobilization assay in hM1-CHO cells, PAM activity with EC20 acetylcholine; assay type: cell-based; conditions: for EC50: read-out: hM1 pEC50 ± SEM (converted)
T2 sequence (P11229 1-460): T1 sequence (P08482 1-460) with V5A, S254T, S309P, K320R, G337A, V413I
Protocol: as §1

| Structure (SMILES) | rM1 %ACh Max ± SEM [1] | EC50 [1] | hM1 %ACh Max ± SEM [2] | EC50 [2] | rM1 pEC50 ± SEM [1] | hM1 pEC50 ± SEM [2] |
| --- | --- | --- | --- | --- | --- | --- |
| Cn1cc(-c2ccc(Cc3cc(C(=O)N[C@H]4CCCCC[C@@H]4O)nn3-c3ccccc3)cc2)cn1 [17e] | 80 ± 3.2 %ACh Max | 3470 nM | 72 ± 2.6 %ACh Max | 4570 nM | – | – |
| Cn1cc(-c2ccc(Cc3cc(C(=O)N[C@H]4CC[C@@H]4O)nn3-c3ccccc3)cc2)cn1 [17d] | 51 ± 3.9 %ACh Max | > 10000 nM | 48 ± 7.4 %ACh Max | > 10000 nM | – | – |
| Cn1cc(-c2ccc(Cc3cc(C(=O)N[C@H]4CCCC[C@@H]4O)nn3-c3ccccc3)cc2)cn1 [17a] | 80 ± 3.8 %ACh Max | 2510 nM | 70 ± 1.5 %ACh Max | 3020 nM | – | – |
| Cn1cc(-c2ccc(Cc3cc(C(=O)N[C@H]4CCOC[C@@H]4O)nn3C3CCCCC3)cc2)cn1 [17h] | 80 ± 7.1 %ACh Max | 1480 nM | 73 ± 3.1 %ACh Max | 4900 nM | – | – |
| Cn1cc(-c2ccc(Cc3cc(C(=O)N[C@H]4CCOC[C@@H]4O)nn3-c3ccccc3)cc2)cn1 [17b] | 84 ± 4.6 %ACh Max | 1200 nM | 74 ± 0.6 %ACh Max | 2000 nM | – | – |
| Cn1cc(-c2ccc(Cc3cc(C(=O)N[C@H]4CCC[C@@H]4O)nn3-c3ccccc3)cc2)cn1 [17c] | 69 ± 4.3 %ACh Max | > 10000 nM | 58 ± 3.0 %ACh Max | > 10000 nM | – | – |
| Cn1cc(-c2ccc(Cc3cc(C(=O)N[C@H]4CCOC[C@@H]4O)nn3Cc3ccccc3)cc2)cn1 [17f] | 57 ± 4.6 %ACh Max | > 10000 nM | – | > 10000 nM | – | – |

Next, values leading:

| rM1 %ACh Max ± SEM [1] | EC50 [1] | hM1 %ACh Max ± SEM [2] | EC50 [2] | rM1 pEC50 ± SEM [1] | hM1 pEC50 ± SEM [2] | Structure (SMILES) |
| --- | --- | --- | --- | --- | --- | --- |
| – | – | – | – | Inactive (n = 3) Inactive (n = 3) | Inactive (n = 3) Inactive (n = 3) | CC(C)n1nc(C(=O)N[C@H]2CCOC[C@@H]2O)cc1Cc1ccc(-c2cnn(C)c2)cc1 [17i] |
| 76 ± 4.2 %ACh Max | 1910 nM | 78 ± 8.8 %ACh Max | 2950 nM | – | – | Cn1cc(-c2ccc(Cc3cc(C(=O)NC4CC5(COC5)C4)nn3C3CCCC3)cc2)cn1 [17p] |
| – | 794 nM | – | 1260 nM | – | – | CNC(=O)c1ccc(Cc2cc(C(=O)N[C@H]3CCOC[C@@H]3O)nn2C2CCCC2)cc1 [compound 21] |
| 81 ± 3.8 %ACh Max | 724 nM | 79 ± 4.4 %ACh Max | 661 nM | – | – | Cn1cc(-c2ccc(Cc3cc(C(=O)N[C@H]4CCCCC[C@@H]4O)nn3C3CCCC3)cc2)cn1 [17l] |
| 50 ± 3.7 %ACh Max | > 10000 nM | 46 ± 1.1 %ACh Max | > 10000 nM | – | – | Cn1cc(-c2ccc(Cc3cc(C(=O)NC4CC(F)C4)nn3C3CCCC3)cc2)cn1 (stereo not shown) [17o] |
| 75 ± 7.6 %ACh Max | 562 nM | 71 ± 4.1 %ACh Max | 1200 nM | – | – | Cn1cc(-c2ccc(Cc3cc(C(=O)N[C@H]4CCOC[C@@H]4O)nn3C3CCOC3)cc2)cn1 (stereo partly shown) [17j] |
| 73 ± 5.3 %ACh Max | 1580 nM | 76 ± 10 %ACh Max | 2140 nM | – | – | Cn1cc(-c2ccc(Cc3cc(C(=O)N[C@H]4CCC[C@@H]4O)nn3C3CCCC3)cc2)cn1 [17m] |
| 72 ± 3.8 %ACh Max | 4170 nM | 67 ± 2.5 %ACh Max | 6610 nM | – | – | Cn1cc(-c2ccc(Cc3cc(C(=O)N[C@@H]4CCOC[C@H]4F)nn3C3CCCC3)cc2)cn1 [17n] |
